Experimental data as given in patent publication US20030190365A1, “Methods for wet granulating azithromycin” (Pfizer Inc., priority 2001, published 2003).

Columns and labels:
[1] = Equilibrium solubility of azithromycin forms in granulating liquids (HPLC-UV)
Experimental: Equilibrium solubility of several different forms of azithromycin, in typical liquids used in the wet granulation process, were evaluated as follows.
Excess azithromycin was added as a solid into each respective test liquid and mixed by rotation using a Labquake Rotating Mixer® at 7 revolutions per minute (RPM). Duplicate samples were run for each condition. Excess drug material was added to achieve saturation. Once saturation was achieved, the samples were rotated for 48 hours with sampling intervals at 24 and 48 hours. Azithromycin form A was also set up for a 7-day equilibrium solubility analysis to assure equilibrium beyond 48 hours. At each sampling interval, approximately half (1 mL) the sample was transferred into a polyethylene microcentrifuge tube and centrifuged at 15,000 RPM for 20 minutes using the Eppendorf Centrifuge Model # 5403. Following centrifugation, the liquid layer was pipetted and diluted with 0.04 M potassium phosphate dibasic (pH=8): acetonitrile (4:6). Dilutions were made accordingly until the peak area fell into the linear curve range of the standards (0.15 to 1.5 mgA/mL). Samples were run by HPLC (HP-1100 system, Agilent Technologies, Wilmington, Del.) with UV detection at 210 nm. The sample data was calculated by linear regression against the standard curve based on azithromycin form A.

[2] = As-is and tapped density of bulk drug and dried granulations (Van Kel tap density tester); format: physicochemical
Experimental: Form F bulk drug contained soft lumps and was sieved through an 18 mesh (1.0 mm) screen before use. A small-scale granulation process, as described in Example 1, was used for samples of 5 g of bulk drug. The liquid was pipetted in 0.1 to 1.0 mL increments until a granulation was formed, based on visual observations, followed by wet mixing for 3-5 minutes. All three runs formed wet granulations, but the run with water was much less granular than the non-aqueous runs. All of the samples were dried overnight at 40° C. for 16 hours. […] The two nonaqueous liquid runs appeared to be only ˜50% granules, and the water run was only slightly granular.
Samples of the dried granules were then hand sieved through an 18 mesh screen and the density was determined, as shown above in Table 2C. SEM's were taken of dried samples both before and after sieving was done to aid in the evaluation.
A small-scale process, as described in Example 1, was used to granulate the formulations. The ingredients (except for the lubricant), to make a 10 g lot for each run, were pre-blended for 5 minutes on a Turbula Shaker-Mixer (Willy A. Bachofen AG Maschinenfabrik, Basel, Switzerland). The blend was granulated per Example 1. The liquid was pipetted in 0.1 to 1.0 mL increments and mixed for 2.5-6 minutes until a granulation was formed. All of the samples were dried overnight at 40° C. for 16 hours. The amount of densification varied depending on the excipients used in the formulation. […] Tablets were not made from these four granulation runs because of the poor quality.
A small-scale process, as described in Example 1, was used to granulate the formulations into 10 g lots. The liquid was pipetted in 0.1 to 1.0 mL increments and mixed for 2-5 minutes until a granulation was formed. All of the samples were dried overnight at 40° C. for 16 hours in a forced hot air oven and then hand sieved through a 18 mesh (1.0 mm) screen.
A small-scale process, as described in Example 1, was used to granulate the formulations. The granulating liquid was pipetted in 0.1 to 1.0 mL increments and mixed with the 9.3 g of the dry blend for 3-6 minutes until a granulation was formed. The granulating amount, of 30, 27 and 29%, was used for the PVP granulating liquid in ethanol, water and 50:50 ethanol:water, respectively. The amount of liquid used was 2.5-3 mL, therefore the amount of solid (PVP) added in solution based on the 10 g final batch size was from about 0.25 to 0.3%. All of the samples were dried overnight at 40° C. for 16 hours and then hand sieved through a 16 mesh (1.2 mm) screen.
A small-scale process, as described in Example 1, was used to granulate the formulations to make 10 g lots. Each formulation was pre-blended for 5 minutes on a Turbula Shaker-Mixer (Willy A. Bachofen AG Maschinenfabrik, Basel, Switzerland) for 5 minutes. The blend was then granulated as described in Example 1. The liquid was pipetted in 0.1 to 1.0 mL increments and mixed for 4-8 minutes until a granulation was formed. All of the samples were dried overnight at 40° C. for 16 hours and then hand sieved through a 16 mesh (1.2mm) screen. The densities of the granulations were then compared to the bulk drug and to each other. The amount of densification varied depending on the components used in the formulation.

[3] = 24 hours, EtOH 33% in water v/v
[4] = 24 hours, EtOH 67% in water v/v
[5] = 48 hours, EtOH 33% in water v/v
[6] = 48 hours, EtOH 67% in water v/v

SMILES	solubility [1, 3]	solubility [1, 4]	solubility ([1]; 24 hours, EtOH 100% neat)	solubility ([1]; 24 hours, IPA 33% in water v/v)	solubility ([1]; 24 hours, IPA 67% in water v/v)	solubility ([1]; 24 hours, IPA 100% neat)	solubility ([1]; 24 hours, water)	solubility [1, 5]	solubility [1, 6]	solubility ([1]; 48 hours, EtOH 100% neat)	solubility ([1]; 48 hours, IPA 33% in water v/v)	solubility ([1]; 48 hours, IPA 67% in water v/v)	solubility ([1]; 48 hours, IPA 100% neat)	solubility ([1]; 48 hours, water)	As Is Density ([2]; Example 3)	Tapped Density ([2]; Example 3)	other results
CC[C@H]1OC(=O)[C@H](C)[C@@H](O[C@H]2C[C@@](C)(OC)[C@@H](O)[C@H](C)O2)[C@H](C)[C@@H](O[C@@H]2O[C@H](C)C[C@H](N(C)C)[C@H]2O)[C@](C)(O)C[C@@H](C)CN(C)[C@H](C)[C@@H](O)[C@]1(C)O [form A, 9-deoxo-9a-aza-9a-methyl-9a-homoerythromycin A, reference compound]	1.30 mgA/mL	27.48 mgA/mL	219.74 mgA/mL	5.50 mgA/mL	68.71 mgA/mL	291.91 mgA/mL	0.10 mgA/mL	1.23 mgA/mL	27.25 mgA/mL	211.59 mgA/mL	5.25 mgA/mL	67.70 mgA/mL	280.91 mgA/mL	0.14 mgA/mL	–	–	solubility ([1]; 7 days, EtOH 33% in water v/v): 1.27 mgA/mL; solubility ([1]; 7 days, EtOH 67% in water v/v): 27.02 mgA/mL; solubility ([1]; 7 days, EtOH 100% neat): 214.76 mgA/mL; solubility ([1]; 7 days, IPA 33% in water v/v): 5.28 mgA/mL; solubility ([1]; 7 days, IPA 67% in water v/v): 66.63 mgA/mL; solubility ([1]; 7 days, IPA 100% neat): 286.45 mgA/mL; solubility ([1]; 7 days, water): 0.11 mgA/mL; solubility in pure water compared to all other forms ([1]; relative to the other forms): approximately one-half; solubility in the isopropanol solutions compared to all other forms ([1]; relative to the other forms): lower solubility
CC[C@H]1OC(=O)[C@H](C)[C@@H](O[C@H]2C[C@@](C)(OC)[C@@H](O)[C@H](C)O2)[C@H](C)[C@@H](O[C@@H]2O[C@H](C)C[C@H](N(C)C)[C@H]2O)[C@](C)(O)C[C@@H](C)CN(C)[C@H](C)[C@@H](O)[C@]1(C)O [form G, azithromycin sesquihydrate]	–	–	–	–	–	–	–	–	–	–	–	–	–	–	–	–	As Is Density ([2]; Example 3, sesquihydrate): 0.290 g/cc; Tapped Density ([2]; Example 3, sesquihydrate): 0.450 g/cc
CCC1OC(=O)C(C)C(O[C@H]2C[C@@](C)(OC)[C@@H](O)C(C)O2)C(C)[C@@H](OC2OC(C)CC(N(C)C)[C@H]2O)[C@@](C)(O)C[C@@H](C)CN(C)[C@H](C)[C@@H](O)[C@]1(C)O (stereo partly drawn) [form J, azithromycin monohydrate hemi-n-propanol solvate]	0.95 mgA/mL	27.15 mgA/mL	224.77 mgA/mL	9.81 mgA/mL	113.05 mgA/mL	315.94 mgA/mL	0.18 mgA/mL	0.99 mgA/mL	26.30 mgA/mL	208.99 mgA/mL	9.40 mgA/mL	106.51 mgA/mL	295.88 mgA/mL	0.22 mgA/mL	0.377 g/cc	0.649 g/cc	–
CCC1OC(=O)C(C)C(O[C@H]2C[C@@](C)(OC)[C@@H](O)C(C)O2)C(C)[C@@H](OC2OC(C)CC(N(C)C)[C@H]2O)[C@@](C)(O)C[C@@H](C)CN(C)[C@H](C)[C@@H](O)[C@]1(C)O (stereo partly drawn) [form M, azithromycin monohydrate hemi-isopropanol solvate]	0.97 mgA/mL	25.86 mgA/mL	211.38 mgA/mL	8.56 mgA/mL	110.67 mgA/mL	333.39 mgA/mL	0.22 mgA/mL	1.10 mgA/mL	27.00 mgA/mL	222.38 mgA/mL	8.92 mgA/mL	82.95 mgA/mL	353.19 mgA/mL	0.21 mgA/mL	0.391 g/cc	0.514 g/cc	solubility ([1]; 72 hours, IPA 67% in water v/v): 71.35 mgA/mL; solubility ([1]; 72 hours, IPA 100% neat): 322.55 mgA/mL
CCC1OC(=O)C(C)C(O[C@H]2C[C@@](C)(OC)[C@@H](O)C(C)O2)C(C)[C@@H](OC2OC(C)CC(N(C)C)[C@H]2O)[C@@](C)(O)C[C@@H](C)CN(C)[C@H](C)[C@@H](O)[C@]1(C)O (stereo partly drawn) [form F, azithromycin monohydrate hemi-ethanol solvate]	0.98 mgA/mL	27.86 mgA/mL	228.34 mgA/mL	10.04 mgA/mL	94.09 mgA/mL	367.02 mgA/mL	0.19 mgA/mL	1.06 mgA/mL	27.56 mgA/mL	229.87 mgA/mL	9.41 mgA/mL	79.90 mgA/mL	362.64 mgA/mL	0.21 mgA/mL	0.290 g/cc	0.439 g/cc	As is Density ([2]; Example 2, form F, Table 2A): 0.290 g/cc; Tapped Density ([2]; Example 2, form F, Table 2A, 2000 taps): 0.439 g/cc; As is Density ([2]; Example 2, form F, Table 2C): 0.290 g/cc; Tapped Density ([2]; Example 2, form F, Table 2C): 0.439 g/cc; As Is Density ([2]; Example 6, form F): 0.290 g/cc; Tapped Density ([2]; Example 6, form F): 0.439 g/cc; As Is Density ([2]; Example 7, form F): 0.290 g/cc; Tapped Density ([2]; Example 7, form F): 0.439 g/cc
CC[C@H]1OC(=O)[C@H](C)[C@@H](O[C@H]2C[C@@](C)(OC)[C@@H](O)[C@H](C)O2)[C@H](C)[C@@H](O[C@@H]2O[C@H](C)C[C@H](N(C)C)[C@H]2O)[C@](C)(O)C[C@@H](C)CN(C)[C@H](C)[C@@H](O)[C@]1(C)O [form N, azithromycin]	1.06 mgA/mL	27.33 mgA/mL	228.14 mgA/mL	9.23 mgA/mL	113.08 mgA/mL	334.22 mgA/mL	0.20 mgA/mL	1.11 mgA/mL	27.20 mgA/mL	225.78 mgA/mL	7.36 mgA/mL	106.48 mgA/mL	322.91 mgA/mL	0.24 mgA/mL	0.450 g/cc	0.600 g/cc	–
